One series concerns the target T1, 5-Lipoxygenase (Homo sapiens, UniProt P09917).
T1 sequence (P09917 1-674): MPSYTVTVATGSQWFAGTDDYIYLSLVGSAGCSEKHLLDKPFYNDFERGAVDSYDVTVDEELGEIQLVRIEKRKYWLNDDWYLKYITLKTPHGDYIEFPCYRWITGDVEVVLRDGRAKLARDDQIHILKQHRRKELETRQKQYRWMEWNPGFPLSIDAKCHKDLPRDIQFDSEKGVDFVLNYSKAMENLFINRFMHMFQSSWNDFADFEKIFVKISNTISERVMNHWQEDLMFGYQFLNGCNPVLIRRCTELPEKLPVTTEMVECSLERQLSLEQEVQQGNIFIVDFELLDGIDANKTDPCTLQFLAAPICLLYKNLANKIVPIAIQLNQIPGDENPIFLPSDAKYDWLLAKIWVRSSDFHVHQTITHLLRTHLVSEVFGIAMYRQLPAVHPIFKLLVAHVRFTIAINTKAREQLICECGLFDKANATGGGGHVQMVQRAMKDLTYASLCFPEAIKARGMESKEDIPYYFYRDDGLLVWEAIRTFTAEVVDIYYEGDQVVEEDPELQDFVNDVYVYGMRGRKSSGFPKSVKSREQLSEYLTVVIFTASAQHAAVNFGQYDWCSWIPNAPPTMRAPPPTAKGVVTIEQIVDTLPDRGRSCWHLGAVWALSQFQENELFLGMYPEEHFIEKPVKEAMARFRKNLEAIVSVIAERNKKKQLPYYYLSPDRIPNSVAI
Briefly: 5-Lipoxygenase inhibitory activity in vitro. The series is classed as biochemical.

Series [1] can be described thus: Determination of plasma half-life after intravenous injection in rats. Type of series: in vivo. To be noted: 1.7 mL/kg solution via jugular cannula, HPLC, elimination phase; for half-life: rat, plasma, read-out: Plasma Halflife (converted). As for the experimental part: Rats were injected intravenously with a 1.7 mL/kg solution of test compound through a jugular cannula. Multiple blood samples were collected from the lateral tail vein using heparinized capillary tubes. Plasma was obtained by centrifugation and precipitation of proteins by 2 volumes of methanol was followed by centrifugation at 12000×G for 10 min. The supernatant was analyzed by HPLC using a C18 Adsorbosphere 7μm column and eluted with a mobile phase of varying amounts of acetonitrile and aqueous 8mM triethylamine acetate and 10mM acetohydroxamic acid with a flow rate of about 1mL/min and detection by UV spectroscopy. The quantitation of compounds was calculated using external standards. The halflife of a test compound was determined from the elimination phase of a graph of the log of the plasma concentration versus time.

As to `Cc1cc(C(C)N(O)C(N)=O)ccc1OCc1ccccc1` (stereo not drawn) [A], at 5-Lipoxygenase, the IC50 was 0.1 µM. In addition, the half-life in series [1] is 2.7 h.
Taken in the same sequence, the figures for `Cc1cc(OCc2ccccc2)ccc1C(C)N(O)C(N)=O` (stereo not drawn) [B] were 0.4 µM and 0.6 h.
With `CC(=O)N(O)C(C)c1ccc(OCc2ccc(F)cc2)cc1` (stereo not drawn) [C], on 5-Lipoxygenase, 0.5 µM corresponded to half-maximal inhibition (IC50). The half-life in series [1] is 5.6 h.
Turning to `CC(c1ccc(OCc2ccc(F)cc2)cc1)N(O)C(N)=O` (stereo not drawn) [D], half-maximal inhibition on 5-Lipoxygenase (IC50) was put at 0.4 µM. Besides, in series [1], the “Plasma Halflife” value is listed as “biphasic”.
For the molecule `CC(=O)N(O)C(C)c1ccc(OCc2ccc(Cl)cc2)cc1` (stereo not drawn) [E], the inhibition at 0.78 µM on 5-Lipoxygenase (0.78 μM, read-out: 5-Lipoxygenase Inhibitory Activity (percent inhibition)) worked out at 91%. In addition, the half-life in series [1] was 1.4 h.
Turning to `Cc1cc(C(C)N(O)C(N)=O)ccc1OC(C)c1ccccc1` (stereo not drawn) [Example 3, N-hydroxy-N-[1-(4-(1-phenylethoxy)-3-methylphenyl)ethyl]urea], the IC50 against 5-Lipoxygenase is 0.2 µM. In series [1], the half-life was 5.3 h.
The corresponding values for `Cc1cc(OC(C)c2ccccc2)ccc1C(C)N(O)C(N)=O` (stereo not drawn) [Example 4, N-hydroxy-N-[1-(4-(1-phenylethoxy)-2-methylphenyl)ethyl]urea] are 0.05 µM and 1.2 h.
Turning to `CC(=O)N(O)C(C)c1ccc(OC(C)c2ccc(F)cc2)cc1` (stereo not drawn) [Example 31, N-Hydroxy-N-(1-(4-(1-(4-fluorophenyl)ethoxy)-phenyl)ethyl]acetamide], on 5-Lipoxygenase, the IC50 was 0.5 µM. In addition, in series [1], the half-life is 12.4 h.
The corresponding values for `CC(Oc1ccc(C(C)N(O)C(N)=O)cc1)c1ccc(F)cc1` (stereo not drawn) [Example 32] are 0.3 µM and 7.2 h.
For `CC(=O)N(O)C(C)c1ccc(OC(C)c2ccc(Cl)cc2)cc1` (stereo not drawn) [Example 33], on 5-Lipoxygenase, the half-inhibitory concentration (IC50) was 0.6 µM. Further, the half-life in series [1] was 5.7 h.
Taken in the same sequence, the figures for `CC(Oc1ccc(C(C)N(O)C(N)=O)cc1)c1ccc(Cl)cc1` (stereo not drawn) [Example 34, N-hydroxy-N-[1-(4-(1-(4-chlorophenyl)ethoxy)-phenyl)ethyl]urea] were 0.2 µM and 7.8 h.
Consider `CC(c1ccc(OCc2ccc(Cl)cc2)cc1)N(O)C(N)=O` (stereo not drawn) [F], for which the inhibition at 0.39 µM at 5-Lipoxygenase (0.39 μM, read-out: 5-Lipoxygenase Inhibitory Activity (percent inhibition)) was 72%. Also, in series [1], the half-life is 4.6 h.

What is called IC50 is the concentration needed to halve the response being measured. Higher therefore signals lower potency. In general, inhibition refers to the relative decrease from the control value, in per cent.

(Values after patent US5026729A, “Lipoxygenase inhibiting compounds” (Abbott Laboratories, priority 1989, dated 1991).)
